These results are taken from ChEMBL document CHEMBL6127102 (Bioorg Med Chem, 2024).

The test system of series [1] is MDA-MB-231. The series is described as follows: Antitumor activity against human MDA-MB-231 cells harboring wild-type BRCA incubated for 72 hrs by MTT assay. Type of series: functional, cell-based. The settings on record: MDA-MB-231, 72 h. Background: Formazan colour is commonly taken as a measure of viable cells.
For a further series, the system named is MDA-MB-468. In words: Antitumor activity against human MDA-MB-468 cells harboring wild-type BRCA incubated for 72 hrs by MTT assay. Type of series: functional, cell-based. The conditions noted are these: MDA-MB-468, 72 h.
The test system of another series is HCC1937. The series is described as follows: Antitumor activity against BRCA 1-deficient human HCC1937 cells incubated for 72 hrs by MTT assay. Type of series: functional, cell-based. The settings on record: HCC1937, 72 h.
The next series deals with MDA-MB-436. In words: Antitumor activity against BRCA 1-deficient human MDA-MB-436 cells incubated for 72 hrs by MTT assay. Type of series: functional, cell-based. The settings on record: MDA-MB-436, 72 h.
Series [2] in a line: Cytotoxicity against human MCF-10A cells incubated for 72 hrs by MTT assay. Type of series: toxicity, cell-based.
For series [3], the system named is MDA-MB-231. The series is described as follows: Induction of apoptosis in human MDA-MB-231 cells as increase in red fluorescence at 5 uM incubated for 24 hrs by Calcein AM/PI staining based confocal microscopy. Type of series: functional, cell-based.
Series [4] relates to MDA-MB-231. In words: Effect on RAF expression in human MDA-MB-231 cells at 5 uM incubated for 24 hrs by Western blot analysis. Type of series: functional, cell-based. On the technique in general: In western blotting, separated proteins are transferred to a membrane and probed.
Series [5] relates to MDA-MB-231. The series is described as follows: Effect on CRAF expression in human MDA-MB-231 cells at 5 uM incubated for 24 hrs by Western blot analysis. Type of series: functional, cell-based.
In series [6] the test system is MDA-MB-231. In words: Effect on MEK phosphorylation in human MDA-MB-231 cells at 5 uM incubated for 24 hrs by Western blot analysis. Type of series: functional, cell-based.
The test system of series [7] is MDA-MB-231. In words: Effect on ERK1/2 phosphorylation in human MDA-MB-231 cells at 5 uM incubated for 24 hrs by Western blot analysis. Type of series: functional, cell-based.
Series [8] has as its system MDA-MB-231. In words: Induction of DNA damage in human MDA-MB-231 cells assessed as increase in olive tail moments at 5 uM incubated for 24 hrs by Comet assay. Type of series: functional, cell-based.
Series [9] relates to MDA-MB-231. In words: Induction of ROS generation in human MDA-MB-231 cells at 5 uM incubated for 24 hrs by DCFH-DA staining based flow cytometric analysis. Type of series: functional, cell-based. (In general: A flow cytometer gives signals particle by particle.)
Series [10] addresses Poly [ADP-ribose] polymerase 1 (Homo sapiens, UniProt P09874). The series is described as follows: Inhibition of PARP1 (unknown origin) using histone as substrate incubated for 60 mins by ELISA.
Series [11] has as its system MDA-MB-231. In words: Induction of DNA damage in human MDA-MB-231 cells assessed as increase in gamma-H2AX level at 5 uM incubated for 24 hrs by immunofluorescence based analysis. Type of series: functional, cell-based.
Series [12] deals with MDA-MB-231. The series is described as follows: Induction of apoptosis in human MDA-MB-231 cells at 5 uM incubated for 24 hrs by Annexin V-FITC/PI staining based flow cytometry relative to control. Type of series: functional.
Series [13] can be described thus: Induction of depolarization of mitochondrial membrane potential in human MDA-MB-231 cells at 5 uM incubated for 24 hrs by JC-1 staining based flow cytometry relative to control. Type of series: functional.
Series [14] relates to MDA-MB-231. In words: Anti-migration activity in human MDA-MB-231 cells assessed as wound closure area at 1 uM incubated for 24 hrs by wound healing assay (reference value: 75.6 %). Type of series: functional.
For series [15], the system named is MDA-MB-231. The series is described as follows: […] activity in human MDA-MB-231 cells at 1 uM incubated for 24 hrs by wound healing assay. Type of series: functional, cell-based.
For series [16], the system named is MDA-MB-231. In words: Induction of apoptosis in human MDA-MB-231 cells assessed as increase in Bax level at 5 uM incubated for 24 hrs by Western blot analysis. Type of series: functional, cell-based.
For series [17], the system named is MDA-MB-231. In words: Induction of apoptosis in human MDA-MB-231 cells assessed as decrease in Bcl-2 level at 5 uM incubated for 24 hrs by Western blot analysis. Type of series: functional, cell-based.
Series [18] is described as follows: Toxicity in BALB/c nude mouse xenografted with human MDA-MB-231 cells assessed as body weight change at 20 mg/kg, ip administered on every 2 days for 28 days. The conditions noted are these: in vivo, 672 h, time 28 day. Type of series: organism-based.
Series [19] in a line: Toxicity in BALB/c nude mouse xenografted with human MDA-MB-231 cells assessed as drug tolerance at 20 mg/kg, ip administered on every 2 days for 28 days. Type of series: organism-based. The conditions noted are these: in vivo, 672 h, time 28 day.
Series [20] concerns MDA-MB-231. In words: Antitumor activity against human MDA-MB-231 cells xenografted in BALB/c nude mouse assessed as increase in apoptotic cells at 20 mg/kg, ip administered on every 2 days for 28 days by H and E staining based analysis. The settings on record: time 28.0 day. Type of series: functional, organism-based.
The test system of series [21] is MDA-MB-231. In words: Antitumor activity against human MDA-MB-231 cells xenografted in BALB/c nude mouse assessed as increase in necrotic cells at 20 mg/kg, ip administered on every 2 days for 28 days by H and E staining based analysis. Type of series: functional, organism-based. The conditions noted are these: time 28.0 day.
Series [22] has as its system MDA-MB-231. The series is described as follows: Antitumor activity against human MDA-MB-231 cells xenografted in BALB/c nude mouse assessed as decrease in Ki-67 expression at 20 mg/kg, ip administered on every 2 days for 28 days by H and E staining based analysis. Type of series: functional, organism-based. The settings on record: time 28.0 day.

Molecules are shown by their SMILES. The source made the active and inactive calls. The calls are words filed in the database; no cut-off is given here.

Poly [ADP-ribose] polymerase 1, sequence (P09874 whole entry): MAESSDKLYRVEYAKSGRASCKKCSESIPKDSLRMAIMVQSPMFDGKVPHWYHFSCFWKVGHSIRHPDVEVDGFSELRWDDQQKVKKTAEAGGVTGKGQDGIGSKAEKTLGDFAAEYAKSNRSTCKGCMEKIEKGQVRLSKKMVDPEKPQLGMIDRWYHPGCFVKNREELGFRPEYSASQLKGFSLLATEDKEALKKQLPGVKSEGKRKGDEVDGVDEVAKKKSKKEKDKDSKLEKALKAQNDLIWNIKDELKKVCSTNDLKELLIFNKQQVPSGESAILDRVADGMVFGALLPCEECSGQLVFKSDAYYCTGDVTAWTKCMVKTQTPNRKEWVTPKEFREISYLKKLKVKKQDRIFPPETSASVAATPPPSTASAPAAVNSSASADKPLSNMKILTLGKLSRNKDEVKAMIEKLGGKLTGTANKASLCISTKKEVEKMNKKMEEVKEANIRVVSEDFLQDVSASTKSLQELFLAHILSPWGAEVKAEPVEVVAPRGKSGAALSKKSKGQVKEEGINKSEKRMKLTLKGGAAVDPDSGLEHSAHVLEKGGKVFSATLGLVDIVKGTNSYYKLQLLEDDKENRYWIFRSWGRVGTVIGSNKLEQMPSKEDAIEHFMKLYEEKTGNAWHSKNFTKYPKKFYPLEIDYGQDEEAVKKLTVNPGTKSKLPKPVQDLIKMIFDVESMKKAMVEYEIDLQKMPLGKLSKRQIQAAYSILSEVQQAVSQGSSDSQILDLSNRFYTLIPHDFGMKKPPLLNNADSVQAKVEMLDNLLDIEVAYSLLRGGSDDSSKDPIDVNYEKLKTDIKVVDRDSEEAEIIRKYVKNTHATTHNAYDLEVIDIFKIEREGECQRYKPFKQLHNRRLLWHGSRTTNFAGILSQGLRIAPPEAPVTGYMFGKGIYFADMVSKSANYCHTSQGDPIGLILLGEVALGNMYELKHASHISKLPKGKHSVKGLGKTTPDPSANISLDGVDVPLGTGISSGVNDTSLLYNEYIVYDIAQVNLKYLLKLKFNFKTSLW

With `COc1cc(OC)c(/C=C/S(=O)(=O)Cc2ccc(OC)c(NC(=O)CCCC(=O)O)c2)c(OC)c1`, the IC50 in the series with MDA-MB-231 [1] was determined as 3.57 µM; in the series with MDA-MB-468, 5.76 µM; in the series on HCC1937 it was 3.92 µM; in the series on MDA-MB-436 it was 4.82 µM. In series [2], the IC50 at 72 h is above 40 µM.
As for `O=C(c1cc(Cc2n[nH]c(=O)c3ccccc23)ccc1F)N1CCNCC1`, the IC50 in the series on MDA-MB-231 [1] is 21 µM; with MDA-MB-468, 12.3 µM; with HCC1937 it was 3.21 µM; in the series on MDA-MB-436 it was 2.61 µM; in series [10], 0.0395 µM. In series [2], this compound displayed an IC50 at 72 h above 40 µM. Also, the result in the series with MDA-MB-231 [3], in the series with MDA-MB-231 [4], in the series with MDA-MB-231 [5], in the series on MDA-MB-231 [6], in the series on MDA-MB-231 [7] and in the series on MDA-MB-231 [8] was inactive. Also, the outcome with MDA-MB-231 [9], in the series on MDA-MB-231 [11] and in the series with MDA-MB-231 [15] was inactive. The Activity in the series on MDA-MB-231 [12] came out at 21.14%; in [13] it was 23.88%; in the series with MDA-MB-231 [14] it was 66.1%. The result with MDA-MB-231 [16] and in the series on MDA-MB-231 [17] was Active.
Turning to `COc1cc(OC)c(/C=C/S(=O)(=O)Cc2ccc(OC)c(NCCCCCC(=O)O)c2)c(OC)c1`, the concentration for half-maximal inhibition (IC50) with MDA-MB-231 [1] was found to be 2.29 µM; in the series with MDA-MB-468, 5.37 µM; with HCC1937, 4.76 µM; in the series with MDA-MB-436, 3.27 µM. The compound further registered an IC50 at 72 h in series [2] above 40 µM.
For `COc1cc(OC)c(/C=C/S(=O)(=O)Cc2ccc(OC)c(NC(=O)CCC(=O)N3CCN(C(=O)c4cc(Cc5n[nH]c(=O)c6ccccc56)ccc4F)CC3)c2)c(OC)c1` the same measures were 1.19 µM, 2.94 µM, 1.27 µM, 1.55 µM and above 40 µM.
For the compound `COc1cc(OC)c(/C=C/S(=O)(=O)Cc2ccc(OC)c(NCC(=O)O)c2)c(OC)c1` [RIGOSERTIB], the IC50 in the series on MDA-MB-231 [1] amounted to 0.23 µM; in the series with MDA-MB-468, 0.45 µM; in the series with HCC1937 it was 0.33 µM; in the series with MDA-MB-436, 0.25 µM. This compound also returned an IC50 at 72 h in series [2] of 18.4 µM.
The like results for `COc1cc(OC)c(/C=C/S(=O)(=O)Cc2ccc(OC)c(NC(=O)CCCCC(=O)O)c2)c(OC)c1` were, in that order, 6.94 µM, 6.99 µM, 5.29 µM, 7.14 µM and above 40 µM.
Take `COc1cc(OC)c(/C=C/S(=O)(=O)Cc2ccc(OC)c(NCCCCCC(=O)N3CCN(C(=O)c4cc(Cc5n[nH]c(=O)c6ccccc56)ccc4F)CC3)c2)c(OC)c1`: the IC50 is 2.68 µM in the series on MDA-MB-231 [1], 4.57 µM with MDA-MB-468, 3.12 µM in the series with HCC1937 and 2.18 µM with MDA-MB-436. Besides, the 50% inhibitory concentration (IC50) at 72 h in series [2] was above 40 µM.
With `O=C(c1cc(Cc2n[nH]c(=O)c3ccccc23)ccc1F)N1CCN(C(=O)C2CC2)CC1` [OLAPARIB], the IC50 turned out to be 25.5 µM in the series with MDA-MB-231 [1], 14.8 µM with MDA-MB-468, 5.37 µM in the series with HCC1937 and 4.25 µM in the series on MDA-MB-436. The IC50 at 72 h in series [2] was above 40 µM. Besides, the Activity result in [18] and in series [19] was “Non-Toxic” throughout. Also, the result in the series with MDA-MB-231 [20], in the series on MDA-MB-231 [21] and with MDA-MB-231 [22] was Active.
As to `COc1cc(OC)c(/C=C/S(=O)(=O)Cc2ccc(OC)c(NC(=O)CCCC(=O)N3CCN(C(=O)c4cc(Cc5n[nH]c(=O)c6ccccc56)ccc4F)CC3)c2)c(OC)c1`, the half-maximal inhibitory concentration (IC50) in the series with MDA-MB-231 [1] came out at 2.76 µM; in the series with MDA-MB-468 it was 3.64 µM; in the series on HCC1937, 2.01 µM; in the series with MDA-MB-436, 1.93 µM. In series [2], this compound registered an IC50 at 72 h above 40 µM.
For `COc1cc(OC)c(/C=C/S(=O)(=O)Cc2ccc(OC)c(NC(=O)CCC(=O)O)c2)c(OC)c1` the same measures were 2.08 µM, 3.19 µM, 2.17 µM, 2.09 µM and above 40 µM.
The like results for `COc1cc(OC)c(/C=C/S(=O)(=O)Cc2ccc(OC)c(NC(=O)CCCCC(=O)N3CCN(C(=O)c4cc(Cc5n[nH]c(=O)c6ccccc56)ccc4F)CC3)c2)c(OC)c1` were, in that order, 4.57 µM, 4.85 µM, 3.69 µM, 3.76 µM and above 40 µM.
Regarding `COc1cc(OC)c(/C=C/S(=O)(=O)Cc2ccc(OC)c(NCC(=O)N3CCN(C(=O)c4cc(Cc5n[nH]c(=O)c6ccccc56)ccc4F)CC3)c2)c(OC)c1`, the IC50 with MDA-MB-231 [1] amounted to 1.28 µM; with MDA-MB-468, 1.37 µM; with HCC1937, 1.99 µM; with MDA-MB-436, 1.44 µM. This compound showed a half-maximal inhibitory concentration (IC50) at 72 h in [2] above 40 µM.

Broadly, the IC50 is the concentration at which inhibition is half-maximal. Low values mean greater potency, high ones weaker potency.
